Where a name gives a salt, the structure may show the parent alone.
Test system: panel of 12 human pathogenic tumour cell lines of six types of cancer
Assay: in vivo-hollow fiber assay of the National Cancer Institute
Conditions: for NCI criteria fulfilled: (a) total points higher than 20, (b) subcutaneous points higher than 8, (c) cell kill characteristics; for Points (sum) / Points (intraperitoneal) / Points (subcutaneous): NCI point system; for Points (sum): 2 points per administration giving at least 50% reduction of tumour cell growth, maximum 96, hollow fibers in nude mice, intraperitoneal plus subcutaneous, 4 doses at 24 h intervals, two concentrations; for Points (intraperitoneal): intraperitoneally implanted hollow fibers in nude mice; for Points (subcutaneous): subcutaneously implanted hollow fibers in nude mice; for Cell killing properties: vital tumour cell mass of at least one cell line less than the starting value after treatment
Protocol: In order to examine the pharmacological properties, these compounds (BP-7, BP-8, BP-D8) as well as 6-Amino-11-(2′,4′-dimethoxyphenyl)benzo[c]-phenanthridine perchlorate (BP-D3) [PCT/WO 97/14683] were examined in an “in vivo-hollow fiber assay” of the National Cancer Institute (NCI), Bethesda, Md., USA.
Compounds were tested against a panel of 12 human pathogenic tumour cell lines of six types of cancer (non-small cell lung cancer, melanoma, breast cancer, ovarian cancer, colon cancer, CNS cancer).
The cell lines were cultivated in polyvinylidenfluorine hollow fibers which are permeable to small molecules and which were implanted into nude mice. Three hollow fibers were implanted every animal intraperitoneally and subcutaneously which means three tumor cell lines could be examined in each animal in two physiological sites.
The animals were treated four times with a dose of the test substance with a time interval of 24 hours. For this purpose, every compound was administered at two concentrations. At the end of the treatment the hollow fibers were regained and the number of the vital tumour cells or rather of the protein biomass was determined photometrically by an MTT-Formazan-Assay in order to determine the inhibition of growth by the phenanthridines. Mice with prepaired tumour cell cultures in hollow fibers which were only treated by solvent served as control.
The evaluation of test results is based on a point system given by NCI.
Each administration of a test substance which leads to a reduction of the tumour cell growth of at least 50% is given a score of two points. The maximum number of points for one compound is therefore 96 points (12 cell lines*2 implantation sites*2 concentrations of the test substance*2 points). In addition for further specification the results on subcutaneously and intraperitoneally implanted hollow fibers are treated separately. There are three criteria given by NCI. A test substance in the “in vivo-hollow fiber assay” has to fulfill at least one criterion in order to be regarded as suitable for further tests:
(a) the total sum of the points from intraperitoneal and subcutaneous application must be higher than 20.
(b) The total sum of the points of the subcutaneous application must be higher than 8.
(c) After the treatment the vital tumour cell mass of at least one cell line must be less than the starting value (cell kill characteristics).

| SMILES | NCI criteria fulfilled | Points (sum) | Points (intraperitoneal) | Points (subcutaneous) | Cell killing properties | activity in the in vivo-hollow fiber assay (compared with all tested phenanthridines) |
| --- | --- | --- | --- | --- | --- | --- |
| COc1cc(C2Cc3ccccc3-c3nc(N)c4ccccc4c32)cc(OC)c1OC (stereo not drawn) [BP-7, 6-Amino-11,12dihydro-11-(3′,4′,5′-trimethoxyphenyl)benzo[c]-phenanthridine hydrochloride] | (b) and (c) | 16 Points | 6 Points | 10 Points | Yes |  |
| COc1cc(-c2cc3ccccc3c3nc(N)c4ccccc4c23)cc(OC)c1OC [BP-D7, 6-Amino-11-(3′,4′,5′-trimethoxyphenyl)benzo[c]phenanthridine perchlorate] | a, b and c | 28 Points | 14 Points | 14 Points | Yes | highest activity |
| COc1ccc(C2Cc3ccccc3-c3nc(N)c4ccccc4c32)c(OC)c1OC (stereo not drawn) [BP-8, 6-Amino-11,12dihydro-11-(2′,3′,4′-trimethoxyphenyl)benzo[c]-phenanthridine hydrochloride] | (b) and (c) | 20 Points | 10 Points | 10 Points | Yes |  |
| COc1ccc(-c2cc3ccccc3c3nc(N)c4ccccc4c23)c(OC)c1.[O-][Cl+3]([O-])([O-])O [BP-D3, 6-Amino-11-(2′,4′-dimethoxyphenyl)benzo[c]phenanthridine perchlorate, reference compound] | (c) only | 10 Points | 2 Points | 8 Points | Yes |  |
